Results taken from PMC4648260 (Chembiochem : a European journal of chemical biology, 2015).

Assays:
[1] = biological target: LasR (Pseudomonas aeruginosa, UniProt P25084); experiment: LasR antagonism; assay type: cell-based; settings: compound at 100 μM against 2 nM OdDHL; untreated culture set to 100%; negative values indicate receptor agonism; error ±10%
[2] = biological target: QscR (Pseudomonas aeruginosa, UniProt G3XD77); settings: compound at 100 μM against 15 nM OdDHL; untreated culture set to 100%; error ±10%
[3] = biological target: T1, RhlR (Pseudomonas aeruginosa, UniProt P54292); assay type: cell-based; settings: E. coli reporter; for Inhibition (%) / % RhlR inhibition: compound at 100 μM in the presence of 10 μM BHL, untreated culture set to 100%, error ±10%, selected data reproduced from ref. [23]
T1 sequence (P54292 whole entry): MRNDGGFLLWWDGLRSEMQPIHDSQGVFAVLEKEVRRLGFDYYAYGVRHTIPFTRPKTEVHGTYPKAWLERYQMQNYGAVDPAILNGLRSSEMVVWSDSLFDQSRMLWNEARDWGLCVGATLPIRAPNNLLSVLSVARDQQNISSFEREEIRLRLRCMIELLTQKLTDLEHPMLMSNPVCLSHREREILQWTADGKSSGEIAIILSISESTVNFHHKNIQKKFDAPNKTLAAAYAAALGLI

[4] = biological target: T1, RhlR; assay type: cell-based; settings: for RhlR-agonistic selectivity over LasR and QscR: criterion: at least 2.5-fold more active in RhlR agonism assays than in LasR and QscR agonism assays at 100 μM; for EC50: read-out: EC50 (RhlR agonism), E. coli reporter, dose-response 100 nM – 1 mM
[5] = biological target: T1, RhlR; experiment: RhlR agonism, P. aeruginosa GFP reporter strain PAO-JP2/prhlI-LVAgfp; assay type: cell-based; settings: compound at 100 μM in the presence of 100 nM OdDHL, 900 μM BHL set to 100% activation, error ±10%, selected data reproduced from ref. [23]
[6] = biological target: T1, RhlR; experiment: RhlR antagonism; assay type: cell-based

Chain of LasR (P25084 whole entry): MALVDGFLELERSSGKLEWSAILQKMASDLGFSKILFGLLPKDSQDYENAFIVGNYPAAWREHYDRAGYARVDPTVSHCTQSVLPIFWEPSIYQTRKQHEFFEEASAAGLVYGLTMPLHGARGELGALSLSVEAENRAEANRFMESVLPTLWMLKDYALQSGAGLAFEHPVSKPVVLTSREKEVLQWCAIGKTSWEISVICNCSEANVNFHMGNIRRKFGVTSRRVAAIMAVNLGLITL

SMILES	% LasR inhibition [1]	% QscR inhibition [2]	Inhibition (%) / % RhlR inhibition [3]	RhlR-agonistic selectivity over LasR and QscR [4]	% RhlR activation [5]	EC50 [4]	further results
O=C(Cc1ccc2ccccc2c1)NC1CCOC1=O (stereo not drawn) [Compound E12]	81%	60%	77%				
O=C(Cc1ccccc1I)NC1CCOC1=O (stereo not drawn) [Compound C12]				displayed selectivity	11%		
O=C(CCc1ccccc1)NC1CCOC1=O (stereo not drawn) [Compound E30]						6.6 µM	
O=C(Cc1ccccc1)NC1CCOC1=O (stereo not drawn) [Compound C1]				displayed selectivity	53%	14.7 µM	
O=C(Cc1ccccc1)N[C@@H]1CCOC1=O [Compound B4]	15%	37%	66%				
CSc1cccc(CC(=O)N[C@H]2CCOC2=O)c1 [Compound E7]						6.6 µM	
O=C(COc1ccc(I)cc1)N[C@H]1CCOC1=O [Compound E22]	−9%	18%	74%				fold reduction in potency, P. aeruginosa vs E. coli ([6]; IC50 67.2 μM in P. aeruginosa vs 17.3 μM in E. coli): ~ 4 fold; % RhlR inhibition ([6]; P. aeruginosa reporter, compound at 100 μM against 30 μM BHL in the presence of 100 nM OdDHL, cells with 100 nM OdDHL alone set to 100% inhibition, error ±10%): 92%
O=C(Cc1ccc(I)cc1)N[C@H]1CCOC1=O [Compound C10]	58%	−79%	84%				Maximum RhlR inhibition ([3]; antagonism dose curves, highest concentrations tested): near complete RhlR inhibition
O=C(Cc1ccc(F)cc1)NC1CCOC1=O (stereo not drawn) [Compound C2]				displayed selectivity	28%	9 µM	
CCCC(=O)N[C@H]1CCOC1=O [BHL, N-butanoyl L-homoserine lactone, reference compound]						11.1 µM	
O=C(Cc1cccc(Cl)c1)NC1CCOC1=O (stereo not drawn) [Compound C6]				displayed selectivity	26%	5.5 µM	
O=C(Cc1cccc(F)c1)NC1CCOC1=O (stereo not drawn) [Compound C3]				displayed selectivity	28%		
O=C(Cc1ccccc1F)N[C@H]1CCOC1=O [Compound C4]				displayed selectivity	24%		
